What was measured:
C57B1/6 mice = experiment: Audio cued fear conditioning; type: in vivo; conditions: scopolamine impairment
From the text: Further, animal data for FIGS. 22-26 were obtained using experimental methodologies described in a previously published reference, Influence of benzodiazepine binding site ligands on fear-conditioned contextual memory European journal of Pharmacology, Volume 426, Issues 1-2, 24 Aug. 2001, Pages 45-54, Timothy M. DeLorey, Richard C. Lin, Brian McBrady, Xiaohui He, James M. Cook, Jelveh Lameh and Gilda H. Loew, which is incorporated by reference as if fully set forth here in its entirety. Selected sections of the reference are provided below:
Male C57B1/6 mice were obtained from Charles Rivers Laboratories (Holister, Calif.) at 6 weeks of age. […] All animal protocols used in this study conform to the guidelines determined by the National Institute of Health (USA) Office for Protection from Research Risks and are approved by the Animal Care and Use Committee of the Palo Alto Veterans Administration Medical Center, Palo, Alto, Calif. […]
Before testing each day, the mice were moved to a holding room and allowed to acclimate for at least 30 min. […] Twenty-four hours later, contextual memory was assessed by placing the mice back into the freshly rescented (0.3% Ammonium hydroxide) conditioning chambers in which they were trained, for a 4-min test period in the absence of footshock. […] Data were analyzed by one-way analysis of variance(ANOVA) using GraphPad PRISM 2.01 (GraphPad Software). […]

[1] = molecular target: T1, α1β3γ2 benzodiazepine receptor GABA(A) isoform (UniProt P14867+P18507); experiment: Radioligand competition binding, α1β3γ2 BzR/GABA(A) isoform; set-up: rows headed: Ki α1 (in words); other: text; HEK-T cells (Roth et al.); species or system human and rat; conditions: HEK-T cells (Roth et al.)
T1 sequence (P14867 1-456): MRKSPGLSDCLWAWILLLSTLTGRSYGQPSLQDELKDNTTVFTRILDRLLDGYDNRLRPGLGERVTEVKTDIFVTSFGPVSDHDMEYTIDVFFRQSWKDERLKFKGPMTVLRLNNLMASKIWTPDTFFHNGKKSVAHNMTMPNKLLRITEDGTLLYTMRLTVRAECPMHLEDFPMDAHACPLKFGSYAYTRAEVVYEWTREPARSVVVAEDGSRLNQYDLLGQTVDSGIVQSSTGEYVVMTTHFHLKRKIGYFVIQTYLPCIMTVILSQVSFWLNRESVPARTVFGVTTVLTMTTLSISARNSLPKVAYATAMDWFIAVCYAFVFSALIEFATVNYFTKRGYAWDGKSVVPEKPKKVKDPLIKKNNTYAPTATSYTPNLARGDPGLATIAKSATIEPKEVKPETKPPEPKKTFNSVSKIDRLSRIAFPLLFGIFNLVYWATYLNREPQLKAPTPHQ
T1 sequence (P18507 1-475): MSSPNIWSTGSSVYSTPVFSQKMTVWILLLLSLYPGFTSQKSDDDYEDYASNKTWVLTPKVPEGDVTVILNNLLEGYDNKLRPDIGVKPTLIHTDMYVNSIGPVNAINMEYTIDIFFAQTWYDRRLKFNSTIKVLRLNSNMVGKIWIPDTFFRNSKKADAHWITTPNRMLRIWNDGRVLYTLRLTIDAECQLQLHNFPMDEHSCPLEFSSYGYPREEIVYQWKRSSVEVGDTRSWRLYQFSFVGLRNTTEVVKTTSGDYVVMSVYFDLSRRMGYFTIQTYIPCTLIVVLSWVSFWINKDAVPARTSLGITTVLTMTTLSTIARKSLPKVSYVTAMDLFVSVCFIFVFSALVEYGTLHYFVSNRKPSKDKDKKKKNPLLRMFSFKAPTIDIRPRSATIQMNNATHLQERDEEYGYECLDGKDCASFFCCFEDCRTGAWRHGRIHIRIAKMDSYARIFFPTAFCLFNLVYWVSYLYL
Protocol: The affinity of all ligands at the 6 major recombinant GABAA/BzR subtypes was measured by competition for [^3H]Ro15-1788 binding to HEK-T cells expressing both human and rat GABAA/Bz receptors of composition α1β2γ2 (α1), α2β2γ2 (α2), α3β2γ2 (α3), α4β2γ2 (α4), α5β2γ2 (α5) and α6β2γ2 (α6). It is well known that the β2 and β3 subunits can be interchanged with no effect on Bz ligand affinity or efficacy. […] These studies are similar to those performed in the laboratory of Bryan Roth who has already expressed the receptors employing the work of Kucken et. al. and Gray et. al.
In brief, for membrane preparations, the cells were scraped on to the ice and diluted into 5 mL of phosphate buffered saline (pH=7.40) and cells pelleted by centrifugation for 5 min. at 4° C. The pellet was resuspended in 1 mL of 50 mM Tris-acetate buffer (pH 7.4) and centrifuged at 18,000 g for 20 min. […] Each pellet were diluted to 6 mL and then 100 μL of membranes were incubated with approximately 1 nM final concentration of [^3H]Ro 15-1788 in a total volume of 250 μL together with serial dilutions of test compound for 90 min. on ice. The membranes were harvested in polyethyleneimine-pretreated Whatman GF/C filters and after drying and addition of scintillation cocktail, counted in a scintillation counter. […]

CCc1ccc2c(c1)C(=O)N(C)Cc1c(C(=O)OCCCOC(=O)c3ncn4c3CN(C)C(=O)c3cc(CC)ccc3-4)ncn1-2 [XLi356, 1,3-Bis(8-ethyl-5,6-dihydro-5-methyl-6-oxo-4H-imidazo[1,5a][1,4]benzodiazepine-3-carboxy)propyl diester]
audio cued memory / audio cued fear conditioning (in words) (C57B1/6 mice; listed as XLI356): not able to reverse this type of memory | audio cued memory / audio cued fear conditioning (in words) (C57B1/6 mice; listed as Xli356): no activity | Ki α1 (in words) [1]: no affinity
